Measured values reported in US7205305B2, “Inhibitors of p38” (Vertex Pharmaceuticals Incorporated, priority 1996, dated 2007).

Tests used:
[1] = system: TNF production in LPS-stimulated PBMCs; test: Inhibition of TNF production in LPS-stimulated PBMCs ("cell"); format: cell-based, human; details: Homo sapiens, PBMC
Method: (§1) Inhibitors were serially diluted in DMSO from a 20 mM stock. At least 6 serial dilutions were prepared. Then 4× inhibitor stocks were prepared by adding 4 μl of an inhibitor dilution to 1 ml of RPMI1640 medium/10% fetal bovine serum. The 4× inhibitor stocks contained inhibitor at concentrations of 80 μM, 32 μM, 12.8 μM, 5.12 μM, 2.048 μM, 0.819 μM, 0.328 μM, 0.131 μM, 0.052 μM, 0.021 μM etc. The 4× inhibitor stocks were pre-warmed at 37° C. until use.
(§2) Fresh human blood buffy cells were separated from other cells in a Vacutainer CPT from Becton & Dickinson (containing 4 ml blood and enough DPBS without Mg^2+/Ca^2+ to fill the tube) by centrifugation at 1500×g for 15 min. Peripheral blood mononuclear cells (PBMCs), located on top of the gradient in the Vacutainer, were removed and washed twice with RPMI1640 medium/10% fetal bovine serum. PBMCs were collected by centrifugation at 500×g for 10 min. The total cell number was determined using a Neubauer Cell Chamber and the cells were adjusted to a concentration of 4.8×10^6 cells/ml in cell culture medium (RPMI1640 supplemented with 10% fetal bovine serum).
(§3) We placed 100 μl of cell suspension or whole blood in each well of a 96-well cell culture plate. Then we added 50 μl of the 4× inhibitor stock to the cells. Finally, we added 50 μl of a lipopolysaccharide (LPS) working stock solution (16 ng/ml in cell culture medium) to give a final concentration of 4 ng/ml LPS in the assay. The total assay volume of the vehicle control was also adjusted to 200 μl by adding 50 μl cell culture medium. The PBMC cells or whole blood were then incubated overnight (for 12–15 hours) at 37° C./5% CO2 in a humidified atmosphere.
(§4) The next day the cells were mixed on a shaker for 3–5 minutes before centrifugation at 500×g for 5 minutes. Cell culture supernatants were harvested and analyzed by ELISA for levels of IL-1b (R & D Systems, Quantikine kits, #DBL50), TNF-α (BioSource, #KHC3012), IL-6 (Endogen, #EH2-IL6) and IL-8 (Endogen, #EH2-IL8) according to the instructions of the manufacturer. The ELISA data were used to generate dose-response curves from which IC50 values were derived.

[2] = system: IL-1 production in LPS-stimulated PBMCs; test: Inhibition of IL-1 production in LPS-stimulated PBMCs ("cell"); format: cell-based, human; details: Homo sapiens, PBMC
Method: as §1, §2, §3, §4

activated p38 = activated p38 (Homo sapiens, UniProt Q16539); test: Inhibition of phosphorylation of EGF receptor peptide ("kinase"); format: biochemical; details: inhibition of phosphorylation of EGF receptor peptide by activated p38
activated p38, sequence (Q16539 whole entry): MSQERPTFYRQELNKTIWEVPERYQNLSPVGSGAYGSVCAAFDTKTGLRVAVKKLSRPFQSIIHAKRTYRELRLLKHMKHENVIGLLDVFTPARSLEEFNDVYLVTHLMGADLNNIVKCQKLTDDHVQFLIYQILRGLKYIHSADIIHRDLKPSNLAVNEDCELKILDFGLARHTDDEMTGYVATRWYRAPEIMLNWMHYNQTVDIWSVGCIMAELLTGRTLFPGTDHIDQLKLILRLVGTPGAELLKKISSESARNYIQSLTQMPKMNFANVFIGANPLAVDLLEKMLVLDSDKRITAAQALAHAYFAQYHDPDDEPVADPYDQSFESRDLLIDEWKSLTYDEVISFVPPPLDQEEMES
Method: This assay was carried out in the presence of 10 mM MgCl2, 25 mM β-glycerophosphate, 10% glycerol and 100 mM HEPES buffer at pH 7.6. […] The stock solution was aliquotted into vials. A fixed volume of DMSO or inhibitor in DMSO (final concentration of DMSO in reaction was 5%) was introduced to each vial, mixed and incubated for 15 minutes at room temperature. EGF receptor peptide, […], a phosphoryl acceptor in p38-catalyzed kinase reaction (1), was added to each vial to a final concentration of 200 μM. The kinase reaction was initiated with ATP (100 μM) and the vials were incubated at 30° C. After 30 minutes, the reactions were quenched with equal volume of 10% trifluoroacetic acid (TFA).
The phosphorylated peptide was quantified by HPLC analysis. Separation of phosphorylated peptide from the unphosphorylated peptide was achieved on a reverse phase column (Deltapak, 5 μm, C18 100D, part no. 011795) with a binary gradient of water and acteonitrile, each containing 0.1% TFA.

[3] = system: IL-6 production in whole blood; test: Inhibition of IL-6 production in LPS-stimulated whole blood ("WB"); format: cell-based, human; details: Homo sapiens
Method: as §1
(§5) Alternatively, whole blood containing an anti-coagulant was used directly in the assay.
as §3, §4

[4] = system: TNF production in whole blood; test: Inhibition of TNF production in LPS-stimulated whole blood ("WB"); format: cell-based, human; details: Homo sapiens
Method: as §1, §5, §3, §4

[5] = system: IL-1 production in whole blood; test: Inhibition of IL-1 production in LPS-stimulated whole blood ("WB"); format: cell-based, human; details: Homo sapiens
Method: as §1, §5, §3, §4

COc1cc(Cl)c(C2=C3C=CC(Sc4ccc(F)cc4)=NN3CNC2=O)cc1OC [Compound 134]
IC50 [1]: ≥ 0.5 µM
IC50 [2]: 0.1 to 0.5 µM
IC50 (activated p38): ≤ 0.1 µM

NC(=O)C(c1cccc(-c2cccs2)n1)c1c(Cl)cccc1Cl (stereo not shown) [Compound 317]
IC50 [1]: ≥ 0.5 µM
IC50 [2]: ≥ 0.5 µM
IC50 (activated p38): ≥ 1 µM

Cc1ccc(Sc2ccc3c(-c4c(Cl)cccc4Cl)c(=O)ncn3n2)cc1 [Compound 14]
IC50 [1]: ≥ 0.5 µM
IC50 [2]: 0.1 to 0.5 µM
IC50 (activated p38): ≥ 1 µM

COC(=O)CCc1ccc(SC2=NN3CNC(=O)C(c4c(Cl)cccc4Cl)=C3C=C2)cc1 [Compound 120]
IC50 [3]: ≥ 0.5 µM
IC50 [1]: ≥ 0.5 µM
IC50 [2]: 0.1 to 0.5 µM
IC50 [4]: ≥ 0.5 µM
IC50 [5]: ≥ 0.5 µM

NC(=O)Nc1cc(F)ccc1SC1=NN2CNC(=O)C(c3c(Cl)cccc3Cl)=C2C=C1 [Compound 128]
IC50 [1]: ≥ 0.5 µM
IC50 [2]: ≥ 0.5 µM
IC50 (activated p38): ≥ 1 µM

O=c1ncn2nc(Sc3ccccc3)ccc2c1-c1ccccc1Cl [Compound 7]
IC50 [1]: ≥ 0.5 µM
IC50 [2]: ≥ 0.5 µM
IC50 (activated p38): ≥ 1 µM

O=c1ncn2nc(Sc3ccccc3)ccc2c1-c1c(F)cccc1C(F)(F)F [Compound 22]
IC50 [1]: ≥ 0.5 µM
IC50 [2]: ≥ 0.5 µM
IC50 (activated p38): ≥ 1 µM

O=c1ncn2nc(Sc3ccc(F)cc3[N+](=O)[O-])ccc2c1-c1c(Cl)cccc1Cl [Compound 34]
IC50 [1]: ≥ 0.5 µM
IC50 [2]: ≥ 0.5 µM
IC50 (activated p38): ≥ 1 µM

NC(=O)C(c1cccc(-c2ccccc2CN2CCCC2)n1)c1c(Cl)cccc1Cl (stereo not shown) [Compound 350]
IC50 [1]: ≥ 0.5 µM
IC50 [2]: 0.1 to 0.5 µM
IC50 (activated p38): ≥ 1 µM

Cc1ccc(-c2cccc(N(C(N)=O)c3c(Cl)cccc3Cl)n2)cc1 [Compound 406]
IC50 [1]: ≥ 0.5 µM
IC50 [2]: 0.1 to 0.5 µM
IC50 (activated p38): 0.1 to 1 µM

NC(=O)C(c1cccc(-c2cccc(Cl)c2)n1)c1c(Cl)cccc1Cl (stereo not shown) [Compound 320]
IC50 [1]: 0.1 to 0.5 µM
IC50 [2]: 0.1 to 0.5 µM
IC50 (activated p38): ≤ 0.1 µM

Nc1ccc(F)c(C2=C3C=CC(Sc4ccc(F)cc4)=NN3CNC2=O)c1Cl [Compound 132]
IC50 [1]: 0.1 to 0.5 µM
IC50 [2]: ≤ 0.1 µM
IC50 (activated p38): ≤ 0.1 µM

Nc1cc(C(F)(F)F)ccc1SC1=NN2CNC(=O)C(c3c(Cl)cccc3Cl)=C2C=C1 [Compound 126]
IC50 [1]: ≥ 0.5 µM
IC50 [2]: 0.1 to 0.5 µM
IC50 (activated p38): ≥ 1 µM

COc1ccc(-c2c(=O)ncn3nc(Sc4ccc(F)cc4)ccc23)c(Cl)c1 [Compound 47]
IC50 [1]: ≥ 0.5 µM
IC50 [2]: 0.1 to 0.5 µM
IC50 (activated p38): 0.1 to 1 µM

O=c1ncn2nc(Sc3ccc(F)c(Cl)c3)ccc2c1-c1c(Cl)cccc1Cl [Compound 24]
IC50 [1]: 0.1 to 0.5 µM
IC50 [2]: 0.1 to 0.5 µM
IC50 [4]: ≥ 0.5 µM
IC50 [5]: ≥ 0.5 µM
IC50 (activated p38): 0.1 to 1 µM

O=C1NCN2N=C(Sc3ccccc3)C=CC2=C1c1c(F)cccc1F [Compound 130]
IC50 [1]: ≥ 0.5 µM
IC50 [2]: 0.1 to 0.5 µM
IC50 (activated p38): ≤ 0.1 µM

CC(C)c1ccccc1Sc1ccc2c(-c3c(Cl)cccc3Cl)c(=O)ncn2n1 [Compound 18]
IC50 [1]: ≥ 0.5 µM
IC50 [2]: ≥ 0.5 µM
IC50 (activated p38): ≥ 1 µM

O=C1NCN2N=C(Sc3ccccn3)C=CC2=C1c1c(Cl)cccc1Cl [Compound 107]
IC50 [1]: ≥ 0.5 µM
IC50 [2]: ≥ 0.5 µM
IC50 (activated p38): 0.1 to 1 µM

Cc1nc(=O)c(-c2c(Cl)cccc2Cl)c2ccc(Sc3ccc(F)c(Cl)c3)nn12 [Compound 40]
IC50 [1]: ≥ 0.5 µM
IC50 [2]: 0.1 to 0.5 µM
IC50 (activated p38): 0.1 to 1 µM

NC(=O)c1ccccc1SC1=NN2CNC(=O)C(c3c(Cl)cccc3Cl)=C2C=C1 [Compound 105]
IC50 [1]: ≥ 0.5 µM
IC50 [2]: ≥ 0.5 µM
IC50 (activated p38): 0.1 to 1 µM

Cc1cccc(Sc2ccc3c(-c4c(Cl)cccc4Cl)c(=O)ncn3n2)c1 [Compound 15]
IC50 [1]: 0.1 to 0.5 µM
IC50 [2]: 0.1 to 0.5 µM
IC50 (activated p38): ≥ 1 µM

Cc1cc(Cl)c(-c2c(=O)ncn3nc(Sc4ccc(F)cc4)ccc23)cc1C [Compound 44]
IC50 [1]: ≥ 0.5 µM
IC50 [2]: ≥ 0.5 µM
IC50 (activated p38): 0.1 to 1 µM
